pIC50: −log10 of the molar value.
Target: human Nav 1.8 (Homo sapiens, UniProt Q9Y5Y9)
Test: E-VIPR assay detecting and measuring Nav inhibition properties
Assay type: cell-based
Conditions: HEK cells expressing a truncated form of human Nav 1.8; compound numbers without "*" (not marked as run in the presence of human serum); read-out: measured IC50 value in the E-VIPR Assay
Method in brief: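 Nav inhibition was read by E-VIPR: cells were electrically stimulated while coumarin/oxonol FRET emissions were recorded. Cells were HEK expressing a truncated human Nav 1.8 and co-transduced with KIR2.1, and were assayed in 25% final human serum.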

Chain of human Nav 1.8 (Q9Y5Y9 126-399 limits assumed): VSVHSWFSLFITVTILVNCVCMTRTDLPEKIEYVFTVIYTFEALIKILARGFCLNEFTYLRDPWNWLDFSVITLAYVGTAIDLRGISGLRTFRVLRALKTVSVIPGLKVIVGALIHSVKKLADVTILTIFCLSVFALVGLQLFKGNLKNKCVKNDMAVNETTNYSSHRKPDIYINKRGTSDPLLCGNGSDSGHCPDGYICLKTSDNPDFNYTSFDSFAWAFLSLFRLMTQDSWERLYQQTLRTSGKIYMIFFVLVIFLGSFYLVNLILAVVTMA
Chain of human Nav 1.8 (Q9Y5Y9 660-890 limits assumed): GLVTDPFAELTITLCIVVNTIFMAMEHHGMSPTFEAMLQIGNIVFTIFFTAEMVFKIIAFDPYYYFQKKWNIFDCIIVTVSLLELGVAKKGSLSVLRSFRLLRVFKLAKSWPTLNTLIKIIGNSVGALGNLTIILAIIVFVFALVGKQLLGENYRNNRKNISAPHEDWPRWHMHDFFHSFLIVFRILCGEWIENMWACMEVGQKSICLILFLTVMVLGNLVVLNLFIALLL
Chain of human Nav 1.8 (Q9Y5Y9 1148-1722 limits assumed): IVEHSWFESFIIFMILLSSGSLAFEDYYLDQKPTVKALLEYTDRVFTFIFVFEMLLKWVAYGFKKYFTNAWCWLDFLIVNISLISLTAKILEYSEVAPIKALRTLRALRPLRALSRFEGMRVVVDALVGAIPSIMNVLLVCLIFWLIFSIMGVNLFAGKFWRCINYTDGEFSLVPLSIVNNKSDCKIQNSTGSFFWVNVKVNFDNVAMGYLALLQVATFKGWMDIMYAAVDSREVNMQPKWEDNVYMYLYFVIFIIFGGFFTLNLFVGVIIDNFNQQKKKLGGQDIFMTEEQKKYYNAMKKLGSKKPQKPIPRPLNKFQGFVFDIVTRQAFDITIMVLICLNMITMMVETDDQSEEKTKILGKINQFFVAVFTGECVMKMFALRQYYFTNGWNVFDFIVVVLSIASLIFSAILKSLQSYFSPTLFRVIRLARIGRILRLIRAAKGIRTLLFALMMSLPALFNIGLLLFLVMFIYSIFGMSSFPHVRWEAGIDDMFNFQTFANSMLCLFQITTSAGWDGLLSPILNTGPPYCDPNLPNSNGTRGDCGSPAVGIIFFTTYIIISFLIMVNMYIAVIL

Compound	pIC50
COc1c([C@H]2[C@H](C(=O)Nc3cccc(C(=O)N4CCN(C)CC4)n3)O[C@@](C)(C(F)(F)F)[C@H]2C)ccc(F)c1F [Compound 10, (2R,3S,4S,5R)-3-(3,4-difluoro-2-methoxyphenyl)-4,5-dimethyl-N-(6-(4-methylpiperazine-1-carbonyl)pyridin-2-yl)-5-(trifluoromethyl)tetrahydrofuran-2-carboxamide]	6.00 to 7.00
CNCCNC(=O)c1cc(NC(=O)[C@@H]2O[C@@](C)(C(F)(F)F)[C@@H](C)[C@H]2c2ccc(F)c(F)c2OC)ccn1 [Compound 231, 4-((2R,3S,4S,5R)-3-(3,4-difluoro-2-methoxyphenyl)-4,5-dimethyl-5-(trifluoromethyl)tetrahydrofuran-2-carboxamido)-N-(2-(methylamino)ethyl)picolinamide]	> 8.00
COCC1(C)CC(c2ccc(F)c(F)c2OC)C(C(=O)Nc2ccnc(C(N)=O)c2)O1 (single isomer, unassigned) [Compound 27]	≤ 6.00
COc1c([C@H]2[C@H](C(=O)Nc3ccnc(C(=O)N4CC5CC(C4)N5C)c3)O[C@@](C)(C(F)(F)F)[C@H]2C)ccc(F)c1F [Compound 278, (2R,3S,4S,5R)-3-(3,4-difluoro-2-methoxyphenyl)-4,5-dimethyl-N-(2-(6-methyl-3,6-diazabicyclo[3.1.1]heptane-3-carbonyl)pyridin-4-yl)-5-(trifluoromethyl)tetrahydrofuran-2-carboxamide]	> 8.00
CC(=O)C1CC(Oc2c([C@H]3[C@H](C(=O)Nc4ccnc(C(N)=O)c4)O[C@@](C)(C(F)(F)F)[C@H]3C)ccc(F)c2F)C1 (stereo partly drawn) [Compound 170, 4-((2R,3S,4S,5R)-3-(2-(3-acetylcyclobutoxy)-3,4-difluorophenyl)-4,5-dimethyl-5-(trifluoromethyl)tetrahydrofuran-2-carboxamido)picolinamide]	> 8.00
CC(CO)COc1c([C@H]2[C@H](C(=O)Nc3ccnc(C(N)=O)c3)O[C@@](C)(C(F)(F)F)[C@H]2C)ccc(F)c1F (stereo partly drawn) [Compound 90, 4-((2R,3S,4S,5R)-3-(3,4-difluoro-2-(3-hydroxy-2-methylpropoxy)phenyl)-4,5-dimethyl-5-(trifluoromethyl)tetrahydrofuran-2-carboxamido)picolinamide]	> 8.00

More lines, now with the values ahead:

pIC50	Compound
> 8.00	COc1c([C@H]2[C@H](C(=O)Nc3ccnc(C(=O)N4C[C@@H](N)[C@H](F)C4)c3)O[C@@](C)(C(F)(F)F)[C@H]2C)ccc(F)c1F [Compound 258, (2R,3S,4S,5R)-N-(2-((3R,4R)-3-amino-4-fluoropyrrolidine-1-carbonyl)pyridin-4-yl)-3-(3,4-difluoro-2-methoxyphenyl)-4,5-dimethyl-5-(trifluoromethyl)tetrahydrofuran-2-carboxamide]
> 8.00	COc1c([C@H]2[C@H](C(=O)Nc3ccnc(C(=O)N4CC5(CCN5C)C4)c3)O[C@@](C)(C(F)(F)F)[C@H]2C)ccc(F)c1F [Compound 216, (2R,3S,4S,5R)-3-(3,4-difluoro-2-methoxyphenyl)-4,5-dimethyl-N-(2-(1-methyl-1,6-diazaspiro[3.3]heptane-6-carbonyl)pyridin-4-yl)-5-(trifluoromethyl)tetrahydrofuran-2-carboxamide]
7.00 to 8.00	COc1c([C@H]2[C@H](C(=O)Nc3ccnc(C(=O)N4C[C@@H](N(C)C)[C@@H](F)C4)c3)O[C@@](C)(C(F)(F)F)[C@H]2C)ccc(F)c1F [Compound 300, (2R,3S,4S,5R)-3-(3,4-difluoro-2-methoxyphenyl)-N-(2-((3R,4S)-3-(dimethylamino)-4-fluoropyrrolidine-1-carbonyl)pyridin-4-yl)-4,5-dimethyl-5-(trifluoromethyl)tetrahydrofuran-2-carboxamide]

From patent US20250213555A1, “SUBSTITUTED TETRAHYDROFURAN ANALOGS AS MODULATORS OF SODIUM CHANNELS” (VERTEX PHARMACEUTICALS INCORPORATED, priority 2021, published 2025)
